PubChem BioAssay AID330 (DTP/NCI, 2004)
Values joined by “and” are separate entries in the source; they are usually repeats but may differ in a detail not shown here. Identical values can stand only once. Toxic doses and inconclusive results are not listed.

System: P388 leukemia ip, CD2F1 mice, survival T/C
Assay: NCI In Vivo Anticancer Drug Screen. Data for tumor model P388 Leukemia (intraperitoneal) in CD2F1 (CDF1) mice
Settings: endpoint: median survival time, higher = longer survival
Procedure, shortened: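 Mice carrying the transplanted tumor received test compound or vehicle. Survival was recorded in each group, and the value is the treated-group measurement divided by that of the vehicle-treated control group.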

[1] = dose: 50.0 mg/kg/injection, schedule: Q01DX009 (ip), vehicle: Klucel (hydroxypropylcellulose) (HPC)
[2] = dose: 100.0 mg/kg/injection, schedule: Q01DX009 (ip), vehicle: Klucel (hydroxypropylcellulose) (HPC)
[3] = dose: 200.0 mg/kg/injection, schedule: Q01DX009 (ip), vehicle: Klucel (hydroxypropylcellulose) (HPC)
[4] = dose: 60.0 mg/kg/injection, schedule: Q01DX005 (ip), vehicle: saline
[5] = dose: 120.0 mg/kg/injection, schedule: Q01DX005 (ip), vehicle: saline
[6] = dose: 240.0 mg/kg/injection, schedule: Q01DX005 (ip), vehicle: saline
[7] = dose: 50.0 mg/kg/injection, schedule: Q01DX009 (ip), vehicle: saline
[8] = dose: 100.0 mg/kg/injection, schedule: Q01DX009 (ip), vehicle: saline
[9] = dose: 60.0 mg/kg/injection, schedule: Q01DX005 (ip), vehicle: Klucel (hydroxypropylcellulose) (HPC)
[10] = dose: 120.0 mg/kg/injection, schedule: Q01DX005 (ip), vehicle: Klucel (hydroxypropylcellulose) (HPC)
[11] = dose: 60.0 mg/kg/injection, schedule: Q01DX005 (ip), vehicle: saline with Tween-80
[12] = dose: 120.0 mg/kg/injection, schedule: Q01DX005 (ip), vehicle: saline with Tween-80
[13] = dose: 240.0 mg/kg/injection, schedule: Q01DX005 (ip), vehicle: saline with Tween-80
[14] = dose: 100.0 mg/kg/injection, schedule: Q04DX002 (ip), vehicle: Klucel (hydroxypropylcellulose) (HPC)
[15] = dose: 200.0 mg/kg/injection, schedule: Q04DX002 (ip), vehicle: Klucel (hydroxypropylcellulose) (HPC)
[16] = dose: 400.0 mg/kg/injection, schedule: Q04DX002 (ip), vehicle: Klucel (hydroxypropylcellulose) (HPC)

In the case of CC(=O)N1CCC23c4ccccc4N(C)C2CC(=O)CC13 (configuration not stated), the T/C (dose: 8.75 mg/kg/injection, schedule: Q01DX005 (ip), vehicle: Klucel (hydroxypropylcellulose) (HPC)) is reported as 97 % of control, the T/C (dose: 17.5 mg/kg/injection, schedule: Q01DX005 (ip), vehicle: Klucel (hydroxypropylcellulose) (HPC)) is reported as 98 % of control and the T/C (dose: 35.0 mg/kg/injection, schedule: Q01DX005 (ip), vehicle: Klucel (hydroxypropylcellulose) (HPC)) is reported as 103 % of control.
For Clc1cccc(N=Cc2ccc(C=Nc3cccc(Cl)c3Cl)cc2)c1Cl, the T/C [1] was 94 % of control, the T/C [2] was 91 % of control and the T/C [3] was 90 % of control.
O=c1c2ccccc2nc(CCN(CCCl)CCCl)n1-c1ccc(Cl)cc1 was tested, and the T/C (dose: 25.0 mg/kg/injection, schedule: Q01DX001 (ip), vehicle: saline) was 106 % of control, the T/C (dose: 50.0 mg/kg/injection, schedule: Q01DX001 (ip), vehicle: saline) was 113 % of control and the T/C (dose: 200.0 mg/kg/injection, schedule: Q01DX001 (ip), vehicle: saline) was 164 % of control.
With COc1ccc(Cc2nnc(C)c3c(C)[nH]nc23)cc1 the T/C [1] was 91 % of control, the T/C [2] was 91 % of control and the T/C [3] was 86 % of control.
For CSCC[C@H](NC(C)=O)B1OCCO1, the T/C [4] was 100 % of control, the T/C [5] was 104 % of control and the T/C [6] was 109 % of control.
O=C(O)c1ccccc1-c1c2cc(Br)c(=O)cc-2oc2[c]([Hg])c(O)c(Br)cc12 was tested, and the T/C (dose: 6.25 mg/kg/injection, schedule: Q01DX005 (ip), vehicle: saline) was 106 % of control, the T/C (dose: 12.5 mg/kg/injection, schedule: Q01DX005 (ip), vehicle: saline) was 109 % of control and the T/C (dose: 25.0 mg/kg/injection, schedule: Q01DX005 (ip), vehicle: saline) was 107 % of control.
With CCO[Si](O[Si](OCC)(c1ccccc1)c1ccccc1)(c1ccccc1)c1ccccc1 the T/C [7] was 93 % of control, the T/C [8] was 102 % of control and the T/C (dose: 200.0 mg/kg/injection, schedule: Q01DX009 (ip), vehicle: saline) was 91 % of control.
With CCS(=O)O the T/C [4] was 106 % of control, the T/C [5] was 112 % of control and the T/C [6] was 112 % of control.
In the case of CC1(C)C(=O)C2=C(OC3([Se]2)C(=O)C(C)(C)C(=O)C(C)(C)C3=O)C(C)(C)C1=O, the T/C (dose: 7.5 mg/kg/injection, schedule: Q01DX005 (ip), vehicle: Klucel (hydroxypropylcellulose) (HPC)) is reported as 100 % of control, the T/C (dose: 15.0 mg/kg/injection, schedule: Q01DX005 (ip), vehicle: Klucel (hydroxypropylcellulose) (HPC)) is reported as 107 % of control and the T/C (dose: 30.0 mg/kg/injection, schedule: Q01DX005 (ip), vehicle: Klucel (hydroxypropylcellulose) (HPC)) is reported as 107 % of control. For the same compound, the T/C [9] was 99 % of control and the T/C [10] was 102 % of control.
In the case of C=C1C(=O)C23C(O)C1CCC2C12COC3(O)C(O)C1C(C)(C)CCC2OC(C)=O (configuration not stated), the T/C (dose: 10.0 mg/kg/injection, schedule: Q01DX009 (ip), vehicle: saline with Tween-80) is reported as 117 % of control, the T/C (dose: 20.0 mg/kg/injection, schedule: Q01DX009 (ip), vehicle: saline with Tween-80) is reported as 117 % of control and the T/C (dose: 25.0 mg/kg/injection, schedule: Q01DX009 (ip), vehicle: saline with Tween-80) is reported as 110 % of control.
In the case of O=C1C2CN(Cc3ccccc3)CC2C(=O)N1c1ccccc1 (configuration not stated), the T/C [9] is reported as 102 % of control, the T/C [10] is reported as 97 % of control and the T/C (dose: 240.0 mg/kg/injection, schedule: Q01DX005 (ip), vehicle: Klucel (hydroxypropylcellulose) (HPC)) is reported as 100 % of control.
[N-]=[N+]=Nc1cc(-c2ccccc2)nc2cc3c(cc12)OCO3 was tested, and the T/C [11] was 97 % of control, the T/C [12] was 105 % of control and the T/C [13] was 108 % of control.
For CSc1nc2c(=S)[nH]c(=S)[nH]c2s1, the T/C [14] was 101 % of control, the T/C [15] was 100 % of control and the T/C [16] was 100 % of control.
For CC(=O)NC(C(=O)O)C(C)SCc1ccccc1 (configuration not stated), the T/C (dose: 50.0 mg/kg/injection, schedule: Q01DX009 (ip), vehicle: saline with Tween-80) was 100 % of control, the T/C (dose: 100.0 mg/kg/injection, schedule: Q01DX009 (ip), vehicle: saline with Tween-80) was 91 % of control and the T/C (dose: 200.0 mg/kg/injection, schedule: Q01DX009 (ip), vehicle: saline with Tween-80) was 97 % of control.
For Ic1ccc([I+]c2ccc(I)cc2)cc1, the T/C (dose: 25.0 mg/kg/injection, schedule: Q01DX001 (ip), vehicle: saline with Tween-80) was 100 % of control, the T/C (dose: 50.0 mg/kg/injection, schedule: Q01DX001 (ip), vehicle: saline with Tween-80) was 99 % of control and the T/C (dose: 100.0 mg/kg/injection, schedule: Q01DX001 (ip), vehicle: saline with Tween-80) was 95 % of control. The T/C (dose: 200.0 mg/kg/injection, schedule: Q01DX001 (ip), vehicle: saline with Tween-80) was 100 % of control and the T/C (dose: 400.0 mg/kg/injection, schedule: Q01DX001 (ip), vehicle: saline with Tween-80) was 100 % of control.
For O=P(OCCCl)(OCCCl)C(Nc1cccc2ccccc12)c1ccc(N(CCCl)CCCl)cc1 (configuration not stated), the T/C [11] was 98 % of control, the T/C [12] was 95 % of control and the T/C [13] was 99 % of control.
In the case of NC(=O)C(CCO)NC(=O)OCc1ccccc1 (configuration not stated), the T/C (dose: 4.0 mg/kg/injection, schedule: Q01DX009 (ip), vehicle: other) is reported as 101 % of control, the T/C (dose: 8.0 mg/kg/injection, schedule: Q01DX009 (ip), vehicle: other) is reported as 106 % of control and the T/C (dose: 16.0 mg/kg/injection, schedule: Q01DX009 (ip), vehicle: other) is reported as 101 % of control. For the same compound, the T/C (dose: 32.0 mg/kg/injection, schedule: Q01DX009 (ip), vehicle: other) was 101 % of control and 105 % of control, the T/C (dose: 64.0 mg/kg/injection, schedule: Q01DX009 (ip), vehicle: other) was 97 % of control and the T/C (dose: 128.0 mg/kg/injection, schedule: Q01DX009 (ip), vehicle: other) was 88 % of control. The T/C (dose: 256.0 mg/kg/injection, schedule: Q01DX009 (ip), vehicle: other) was 99 % of control.
CN1CCOP(=O)(c2ccccc2)N1 (configuration not stated) was tested, and the T/C [11] was 99 % of control, the T/C [12] was 100 % of control and the T/C [13] was 89 % of control.
CC(=O)c1ccc2c(c1)-c1ccccc1C(=O)C2=O was tested, and the T/C (dose: 25.0 mg/kg/injection, schedule: Q01DX009 (ip), vehicle: saline) was 98 % of control, the T/C [7] was 106 % of control and 110 % of control and the T/C [8] was 113 % of control and 119 % of control.
In the case of O=C1C(c2ccccc2)=C(c2ccccc2)/C1=C/c1ccc(Cl)cc1, the T/C (dose: 100.0 mg/kg/injection, schedule: Q01DX001 (ip), vehicle: Klucel (hydroxypropylcellulose) (HPC)) is reported as 101 % of control, the T/C (dose: 200.0 mg/kg/injection, schedule: Q01DX001 (ip), vehicle: Klucel (hydroxypropylcellulose) (HPC)) is reported as 105 % of control and the T/C (dose: 400.0 mg/kg/injection, schedule: Q01DX001 (ip), vehicle: Klucel (hydroxypropylcellulose) (HPC)) is reported as 104 % of control.
For O=C1c2ccccc2C(=O)C2C1C1(c3ccccc3)OC2(c2ccccc2)c2ccccc21 (configuration not stated), the T/C (dose: 25.0 mg/kg/injection, schedule: Q01DX005 (ip), vehicle: Klucel (hydroxypropylcellulose) (HPC)) was 101 % of control, the T/C (dose: 50.0 mg/kg/injection, schedule: Q01DX005 (ip), vehicle: Klucel (hydroxypropylcellulose) (HPC)) was 99 % of control and the T/C (dose: 100.0 mg/kg/injection, schedule: Q01DX005 (ip), vehicle: Klucel (hydroxypropylcellulose) (HPC)) was 101 % of control.
In the case of O=S(=O)(Nc1ncccn1)c1ccc(N=Cc2c3ccccc3nc3ccccc23)cc1, the T/C (dose: 12.5 mg/kg/injection, schedule: Q04DX002 (ip), vehicle: Klucel (hydroxypropylcellulose) (HPC)) is reported as 96 % of control, the T/C (dose: 25.0 mg/kg/injection, schedule: Q04DX002 (ip), vehicle: Klucel (hydroxypropylcellulose) (HPC)) is reported as 99 % of control and the T/C (dose: 50.0 mg/kg/injection, schedule: Q04DX002 (ip), vehicle: Klucel (hydroxypropylcellulose) (HPC)) is reported as 93 % of control. For the same compound, the T/C [14] was 99 % of control, the T/C [15] was 91 % of control and the T/C [16] was 96 % of control.
